Laboratory results published in ChEMBL document CHEMBL1137447 (Bioorg Med Chem, 2007).

Tests used:
[1] = target: T1, Prostaglandin G/H synthase 1 (Ovis aries, UniProt P05979); experiment: Inhibition of ovine COX1 by enzyme immuno assay
T1 sequence (P05979 whole entry): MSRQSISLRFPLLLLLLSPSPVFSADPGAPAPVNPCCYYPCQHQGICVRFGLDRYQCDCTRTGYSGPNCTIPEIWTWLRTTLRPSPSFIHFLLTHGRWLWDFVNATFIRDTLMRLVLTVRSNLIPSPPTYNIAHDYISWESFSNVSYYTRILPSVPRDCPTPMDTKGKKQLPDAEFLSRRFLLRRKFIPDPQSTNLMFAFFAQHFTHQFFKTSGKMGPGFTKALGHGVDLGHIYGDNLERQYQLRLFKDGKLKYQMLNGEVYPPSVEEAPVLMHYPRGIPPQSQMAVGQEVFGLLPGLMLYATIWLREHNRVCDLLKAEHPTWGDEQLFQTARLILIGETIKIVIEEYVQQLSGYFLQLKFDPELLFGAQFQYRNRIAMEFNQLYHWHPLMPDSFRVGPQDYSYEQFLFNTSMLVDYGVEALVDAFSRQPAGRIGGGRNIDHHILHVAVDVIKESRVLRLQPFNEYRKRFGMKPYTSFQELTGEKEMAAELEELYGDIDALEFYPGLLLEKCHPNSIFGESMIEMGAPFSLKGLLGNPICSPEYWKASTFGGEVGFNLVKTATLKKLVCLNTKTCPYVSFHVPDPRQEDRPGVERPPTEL

Ovis aries = species on record: Ovis aries; experiment: Selectivity index, ratio of IC50 for ovine COX1 to IC50 for ovine COX2
[2] = Effect on nitric oxide release in pH 7.4 PBS buffer at 37 degC after 1.5 hrs; assay type: functional
[3] = Effect on nitric oxide release in pH 7.4 PBS buffer in presence of rat serum at 37 degC after 1.5 hrs; assay type: functional

| Compound | IC50 [1] | Ratio IC50 (Ovis aries) | Activity [2] | Activity [3] |
| --- | --- | --- | --- | --- |
| CS(=O)(=O)c1ccc(/C=C(/C(=O)OCO/N=[N+](/[O-])N2CCCC2)c2cccc(Br)c2)cc1 | 2500 nM | 0.22 | 6.9% | 48.6% |
| CC(=O)Nc1ccc(/C(=C\c2ccc(S(C)(=O)=O)cc2)C(=O)OCO/N=[N+](/[O-])N2CCCC2)cc1 | > 100000 nM | > 106 | 9.9% | 73% |
| CCN(CC)/[N+]([O-])=N\OCOC(=O)/C(=C/c1ccc(S(C)(=O)=O)cc1)c1ccc(F)cc1 | 1000 nM | 0.43 | 7.1% | 75.3% |
| CCN(CC)/[N+]([O-])=N\OCOC(=O)/C(=C/c1ccc(S(C)(=O)=O)cc1)c1ccc(NC(C)=O)cc1 | > 100000 nM | > 5.9 | 6.5% | 70.4% |
| CCN(CC)/[N+]([O-])=N\OCOC(=O)/C(=C/c1ccc(S(C)(=O)=O)cc1)c1cccc(Br)c1 | 1100 nM | 0.03 | 3.2% | 59.2% |
| CS(=O)(=O)c1ccc(/C=C(/C(=O)OCO/N=[N+](/[O-])N2CCCC2)c2ccc(F)cc2)cc1 | > 100000 nM | > 9.2 | 11.3% | 67.1% |
| CCN(CC)/[N+]([O-])=N/O | – | – | 85% | 85.1% |
